The target of the test is ATP-dependent translocase ABCB1 (Homo sapiens, UniProt P08183). Put plainly: TP_TRANSPORTER: inhibition of Daunorubicin efflux in NIH-3T3-G185 cells.
Sequence of ATP-dependent translocase ABCB1 (P08183 whole entry): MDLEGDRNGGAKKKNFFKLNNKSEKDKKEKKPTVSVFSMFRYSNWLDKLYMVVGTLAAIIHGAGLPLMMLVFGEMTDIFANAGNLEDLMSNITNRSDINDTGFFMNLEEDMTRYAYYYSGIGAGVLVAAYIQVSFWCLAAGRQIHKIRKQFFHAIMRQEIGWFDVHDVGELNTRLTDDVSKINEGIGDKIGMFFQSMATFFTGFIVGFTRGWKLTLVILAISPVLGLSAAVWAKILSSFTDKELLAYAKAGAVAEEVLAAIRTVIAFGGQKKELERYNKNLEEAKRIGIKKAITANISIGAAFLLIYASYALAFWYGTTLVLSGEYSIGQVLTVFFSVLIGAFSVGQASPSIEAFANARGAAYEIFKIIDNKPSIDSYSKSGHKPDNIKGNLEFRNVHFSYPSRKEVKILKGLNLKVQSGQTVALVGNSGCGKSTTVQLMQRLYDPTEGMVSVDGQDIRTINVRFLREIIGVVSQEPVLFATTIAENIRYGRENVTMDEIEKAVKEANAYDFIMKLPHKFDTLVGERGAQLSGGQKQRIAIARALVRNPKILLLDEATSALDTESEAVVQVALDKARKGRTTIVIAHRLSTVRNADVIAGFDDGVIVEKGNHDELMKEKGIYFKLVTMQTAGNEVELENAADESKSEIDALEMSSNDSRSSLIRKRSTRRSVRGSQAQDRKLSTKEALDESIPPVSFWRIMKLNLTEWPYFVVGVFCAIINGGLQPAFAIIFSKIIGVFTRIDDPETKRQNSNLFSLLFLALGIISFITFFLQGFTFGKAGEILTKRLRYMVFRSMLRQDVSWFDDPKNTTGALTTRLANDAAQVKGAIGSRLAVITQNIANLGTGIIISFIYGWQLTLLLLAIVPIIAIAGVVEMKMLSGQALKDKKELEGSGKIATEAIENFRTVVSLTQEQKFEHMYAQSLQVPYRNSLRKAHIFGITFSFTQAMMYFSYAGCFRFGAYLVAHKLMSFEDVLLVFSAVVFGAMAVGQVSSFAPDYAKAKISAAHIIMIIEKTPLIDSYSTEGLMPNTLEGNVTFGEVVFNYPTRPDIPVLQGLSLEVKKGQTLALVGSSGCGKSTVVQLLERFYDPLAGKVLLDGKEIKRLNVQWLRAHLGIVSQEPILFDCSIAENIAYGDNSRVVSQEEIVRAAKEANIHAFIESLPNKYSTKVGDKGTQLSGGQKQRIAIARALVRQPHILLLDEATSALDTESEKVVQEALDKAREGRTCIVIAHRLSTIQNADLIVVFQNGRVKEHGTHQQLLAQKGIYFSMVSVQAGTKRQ

As usually defined, the IC50 is the midpoint of a concentration-inhibition curve. A high value points to weaker potency. Turning to `COc1ccc(-c2cc(=O)c3c(OC)c(OC)c(OC)c(OC)c3o2)cc1OC` [NOBILETIN], it took 11.5 µM to reach half-maximal inhibition (IC50). Compound `CC(C)[C@@H]1NC(=O)[C@H](C)OC(=O)[C@@H](C(C)C)NC(=O)[C@@H](C(C)C)OC(=O)[C@H](C(C)C)NC(=O)[C@H](C)OC(=O)[C@@H](C(C)C)NC(=O)[C@@H](C(C)C)OC(=O)[C@H](C(C)C)NC(=O)[C@H](C)OC(=O)[C@@H](C(C)C)NC(=O)[C@@H](C(C)C)OC1=O` [VALINOMYCIN] showed a 50% inhibitory concentration (IC50) of 3.2 µM. As for `COC(=O)C1=C(C)NC(C)=C(C(=O)OC)C1c1ccccc1[N+](=O)[O-]` [NIFEDIPINE], the IC50 is 113 µM. Take `COc1ccc(CCN(C)CCCC(C#N)(c2cc(OC)c(OC)c(OC)c2)C(C)C)cc1OC` (stereo unspecified) [GALLOPAMIL]: the IC50 is 3.2 µM. This IC50 is about 35-fold lower than that of the compound before. `CC(=O)S[C@@H]1CC2=CC(=O)CC[C@]2(C)[C@H]2CC[C@@]3(C)[C@@H](CC[C@@]34CCC(=O)O4)[C@H]12` [SPIRONOLACTONE] registered an IC50 of 23.6 µM. For `COc1ccc(CCNCCCC(C#N)(c2ccc(OC)c(OC)c2)C(C)C)cc1OC` (stereo unspecified) [NORVERAPAMIL] the value was 0.9 µM.

The values are drawn from ChEMBL document CHEMBL2073899, “Quantitative distinctions of active site molecular recognition by P-glycoprotein and cytochrome P450 3A4” (Chem Res Toxicol, 2001).
